Residues, ends and D or L forms follow the SMILES beside them.
What was measured:
[1] = target: T1, human GLP-1 receptor (GLP1R) (Homo sapiens, UniProt P43220); experiment: cAMP assay on CHO-JumpIn cells stably transfected with human GLP-1 receptor (HitHunter cAMP); assay type: cell-based; settings: Table 2, cAMP accumulation, buffer PBS, 0.1% BSA, 100 μM RO 20-1724, 20% serum, 1 hr at RT, value ± spread, read-out: EC50 GLP1R;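 note: peptides tested as 4-fold serial dilution series, cells exposed 1 hr at RT in the dark, cAMP quantified against a cAMP standard calibration curve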
T1 construct: expressed in transfected cells; host or cells: CHO-JumpIn cells, stably transfected

[2] = target: T2, human glucagon receptor (GCGR) (Homo sapiens, UniProt P47871); experiment: cAMP assay on CHO-JumpIn cells stably transfected with human glucagon receptor (HitHunter cAMP); assay type: cell-based; settings: Table 2; cAMP accumulation, CHO-JumpIn cells with human GCGR, buffer PBS, 0.1% BSA, 100 μM RO 20-1724, 20% serum; 1 hr at RT; value ± spread; read-out: EC50 GCGR;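 note: peptides tested as 4-fold serial dilutions starting from a 2 µM solution, cells exposed 1 hr at RT in darkness, cAMP quantified against a cAMP standard curve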
T2 construct: expressed in transfected cells; host or cells: CHO-JumpIn cells, stably transfected
T2 sequence (P47871 26-477): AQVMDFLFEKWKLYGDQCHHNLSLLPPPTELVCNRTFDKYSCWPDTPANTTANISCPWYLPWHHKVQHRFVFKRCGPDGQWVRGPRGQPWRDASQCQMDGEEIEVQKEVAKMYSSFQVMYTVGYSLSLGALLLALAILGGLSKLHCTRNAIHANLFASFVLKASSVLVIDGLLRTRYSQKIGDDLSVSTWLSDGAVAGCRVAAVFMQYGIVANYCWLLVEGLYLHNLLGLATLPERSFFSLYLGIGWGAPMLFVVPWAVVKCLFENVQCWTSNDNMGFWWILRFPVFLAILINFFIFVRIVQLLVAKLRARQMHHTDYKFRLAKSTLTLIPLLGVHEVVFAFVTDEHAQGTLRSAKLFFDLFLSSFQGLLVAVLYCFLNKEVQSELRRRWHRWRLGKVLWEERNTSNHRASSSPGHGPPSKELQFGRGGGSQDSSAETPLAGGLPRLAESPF

T1 sequence (P43220 24-463): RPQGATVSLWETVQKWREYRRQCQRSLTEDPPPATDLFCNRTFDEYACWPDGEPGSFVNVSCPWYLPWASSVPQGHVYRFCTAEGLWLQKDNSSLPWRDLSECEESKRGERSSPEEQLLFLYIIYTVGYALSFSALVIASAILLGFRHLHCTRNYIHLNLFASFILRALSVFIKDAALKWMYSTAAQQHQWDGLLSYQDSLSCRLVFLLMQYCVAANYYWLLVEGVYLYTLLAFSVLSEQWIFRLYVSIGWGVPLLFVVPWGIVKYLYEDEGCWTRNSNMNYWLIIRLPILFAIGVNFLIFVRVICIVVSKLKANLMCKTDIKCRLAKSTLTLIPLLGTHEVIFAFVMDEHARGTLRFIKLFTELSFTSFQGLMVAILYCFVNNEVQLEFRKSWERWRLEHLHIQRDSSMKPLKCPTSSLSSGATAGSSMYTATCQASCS

SMILES	EC50 [1] [nM]	EC50 [2] [nM]
CC[C@H](C)[C@H](NC(=O)[C@H](CO)NC(=O)[C@H](CC(=O)O)NC(=O)[C@H](CC(C)C)NC(=O)[C@H](Cc1ccc(O)cc1)NC(=O)[C@H](CCCCN)NC(=O)[C@H](CO)NC(=O)[C@H](Cc1ccc(O)cc1)NC(=O)[C@H](CC(=O)O)NC(=O)[C@H](CO)NC(=O)[C@@H](NC(=O)[C@H](Cc1ccccc1)NC(=O)[C@@H](NC(=O)CNC(=O)[C@H](CCC(N)=O)NC(=O)[C@H](CO)NC(=O)[C@@H](N)Cc1c[nH]cn1)[C@@H](C)O)[C@@H](C)O)C(=O)N[C@@H](CCCNC(=N)N)C(=O)N[C@@H](C)C(=O)N[C@@H](CCC(N)=O)C(=O)N[C@@H](CC(=O)O)C(=O)N[C@@H](Cc1ccccc1)C(=O)N[C@H](C(=O)N[C@@H](CCC(N)=O)C(=O)N[C@@H](Cc1c[nH]c2ccccc12)C(=O)N[C@@H](CC(C)C)C(=O)N[C@@H](CCSC)C(=O)N[C@@H](CC(=O)O)C(=O)N[C@H](C(N)=O)[C@@H](C)O)C(C)C [Peptide 18] (H-HSQGTFTSDYSKYLDSIRAQDFVQWLMDT-NH2)	0.056 ± 0.012	0.037 ± 0.011
CSCC[C@H](NC(=O)[C@H](CC(C)C)NC(=O)[C@H](Cc1c[nH]c2ccccc12)NC(=O)[C@H](CCC(N)=O)NC(=O)[C@@H](NC(=O)[C@H](Cc1ccccc1)NC(=O)[C@H](CC(=O)O)NC(=O)[C@H](CCC(N)=O)NC(=O)[C@H](C)NC(=O)[C@H](CCCNC(=N)N)NC(=O)[C@H](CCCNC(=N)N)NC(=O)[C@H](CO)NC(=O)[C@H](CC(=O)O)NC(=O)[C@H](CC(C)C)NC(=O)[C@H](Cc1ccc(O)cc1)NC(=O)[C@H](CCCCN)NC(=O)[C@H](CO)NC(=O)[C@H](Cc1ccc(O)cc1)NC(=O)[C@H](CC(=O)O)NC(=O)[C@H](CO)NC(=O)[C@@H](NC(=O)[C@H](Cc1ccccc1)NC(=O)[C@@H](NC(=O)[C@H](Cc1ccccc1)NC(=O)[C@H](CCC(N)=O)NC(=O)CNC(=O)[C@H](CC(C)C)NC(=O)[C@H](C)NC(=O)[C@@H](N)CCCCN)[C@@H](C)O)[C@@H](C)O)C(C)C)C(=O)N[C@@H](CC(N)=O)C(=O)N[C@H](C(N)=O)[C@@H](C)O [Peptide 21] (H-KALGQFTFTSDYSKYLDSRRAQDFVQWLMNT-NH2)	14.8 ± 11.4	4.18 ± 1.13
CSCC[C@H](NC(=O)[C@H](CC(C)C)NC(=O)[C@H](Cc1c[nH]c2ccccc12)NC(=O)[C@H](CCC(N)=O)NC(=O)[C@@H](NC(=O)[C@H](Cc1ccccc1)NC(=O)[C@H](CC(=O)O)NC(=O)[C@H](CCC(N)=O)NC(=O)[C@H](C)NC(=O)[C@H](CCCNC(=N)N)NC(=O)[C@H](CCCNC(=N)N)NC(=O)[C@H](CO)NC(=O)[C@H](CC(=O)O)NC(=O)[C@H](CC(C)C)NC(=O)[C@H](Cc1c[nH]c2ccccc12)NC(=O)[C@H](Cc1c[nH]cn1)NC(=O)[C@H](CO)NC(=O)[C@H](Cc1ccc(O)cc1)NC(=O)[C@H](CC(=O)O)NC(=O)[C@H](CO)NC(=O)[C@H](Cc1ccccc1)NC(=O)[C@H](Cc1ccccc1)NC(=O)[C@@H](NC(=O)CNC(=O)[C@H](CCC(N)=O)NC(=O)[C@H](CO)NC(=O)[C@@H](N)Cc1c[nH]cn1)[C@@H](C)O)C(C)C)C(=O)N[C@@H](CC(N)=O)C(=O)N[C@H](C(N)=O)[C@@H](C)O [Peptide 22]	> 200	0.029 ± 0.001
CC(C)C[C@H](NC(=O)[C@H](Cc1ccc(O)cc1)NC(=O)[C@H](CCCCN)NC(=O)[C@H](CO)NC(=O)[C@H](Cc1ccc(O)cc1)NC(=O)[C@H](CC(=O)O)NC(=O)[C@H](CO)NC(=O)[C@@H](NC(=O)[C@H](Cc1ccccc1)NC(=O)[C@@H](NC(=O)CNC(=O)[C@H](CCC(N)=O)NC(=O)[C@H](CO)NC(=O)[C@@H](N)Cc1c[nH]cn1)[C@@H](C)O)[C@@H](C)O)C(=O)N[C@@H](CC(=O)O)C(=O)N[C@@H](Cc1c[nH]c2ccccc12)C(=O)N[C@@H](CCCNC(=N)N)C(=O)N[C@@H](CCCNC(=N)N)C(=O)N[C@@H](C)C(=O)N[C@@H](CCC(N)=O)C(=O)N[C@@H](CC(=O)O)C(=O)N[C@@H](Cc1ccccc1)C(=O)N[C@H](C(=O)N[C@@H](CCC(N)=O)C(=O)N[C@@H](Cc1c[nH]c2ccccc12)C(=O)N[C@@H](CC(C)C)C(=O)N[C@@H](CCC(N)=O)C(=O)N[C@@H](CC(N)=O)C(=O)N[C@H](C(N)=O)[C@@H](C)O)C(C)C [Peptide 23]	0.017 ± 0.001	0.019 ± 0.001
